This assay has as its system H9c2 cardiomyocytes, H2O2 protection, ATPLite viability, 2 h. Kind of assay: H2O2-induced H9c2 cell death suppression – ATPLite luminescence, set 2, dose response (AID 602211).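 Further: potency is for protection so actives keep ATP signal up against peroxide killing.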

Activity calls are given as the source filed them.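 How the source made its calls: active means mean IC50 at or below 10 µM; inactive means the rest.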

In general, IC50 refers to the concentration needed to halve the response being measured.

As for `Cc1ccc2[nH]c(=O)c(CN(Cc3ccco3)S(=O)(=O)c3c(C)ccc4nsnc34)cc2c1`, the 50% inhibitory concentration (IC50) is 1.32 µM.
The same measure for `CCOC(=O)c1cnc(Nc2nc3ccccc3o2)nc1CSc1nnc(C)s1`: 12.8 µM (inactive); for `Cc1c(C(=O)Nc2ccc3nc(N4CCOCC4)sc3c2)oc2ccccc12`: > 79 µM (inactive).
The same measure for `COc1cc(NC(=O)c2cccc3c(-c4cnn(C)c4)coc23)cc(OC)c1OC`: 1.56 µM.
Consider `Fc1ccc(CSc2ccc3nnc(-c4cccnc4)n3n2)cc1`, for which the IC50 is 6.22 µM.
The same measure for `CC(=O)Nc1ccc(S(=O)(=O)N(Cc2cccnc2)Cc2cc3ccccc3[nH]c2=O)cc1`: 1.51 µM; for `CCCCCCn1c(C)nc2c(c1=O)c1nc3ccccc3nc1n2/N=C/c1ccco1`: 4.85 µM.
Consider `O=C(N/N=C/c1ccncc1)c1ccc(COc2cccc3cccnc23)cc1`, for which the IC50 is 25.3 µM (inactive).
The same measure for `O=C(CN1CCN(c2ccccn2)CC1)Nc1ccc([N+](=O)[O-])cc1C(=O)Nc1ccccc1F`: 7.08 µM; for `COC(=O)c1ccc(C(NC(=O)OCc2ccccc2)/C(C)=C/[C@@H](C)C(=O)NCc2ccc(OC)c(OC)c2)cc1` (some centres not stated): > 79 µM (inactive).
The same measure for `CSc1nc2ccc(S(=O)(=O)Nc3c(C)n(C)n(-c4ccccc4)c3=O)cc2s1`: 3.1 µM; for `COc1ccc2o/c(=N/NC(=O)c3cccs3)c(C(N)=O)cc2c1`: 2.29 µM.

The values are drawn from PubChem BioAssay AID602211 (Sanford-Burnham Center for Chemical Genomics, 2012).
